Experimental findings from PubChem BioAssay (NCI) are described below.

Among the test systems are 786-0 renal; ACHN renal; HOP-62 NSCLC; HT29 colon; MDA-MB-231 breast; NCI-H460 lung; RPMI-8226 leukemia; SK-MEL-28 melanoma; U251 CNS; UACC-257 melanoma.
What all share (assay): NCI-60 cell line screen, 48 h

“And” between values parts separate entries of the source, which are not always exact repeats. Identical values can stand only once.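 Following 48 hours of exposure in 96-well plates, responses at five concentrations were used to interpolate endpoints linearly. GI50 marks 50% less growth. TGI is the concentration that stops growth completely.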

As for `O=C(N/N=C/c1ccncc1)c1ccc(C(F)(F)F)nc1Nc1cccc(C(F)(F)F)c1`, the GI50 was 1.29 µM with 786-0 renal; 3.46 µM in the experiment with ACHN renal; 2 µM with HOP-62 NSCLC; 3.43 µM in the experiment with HT29 colon; 1.81 µM with MDA-MB-231 breast; 2.84 µM in the experiment on NCI-H460 lung. Moreover, the GI50 in the experiment with RPMI-8226 leukemia was 0.514 µM; in the experiment with SK-MEL-28 melanoma it was 3.48 µM; with U251 CNS, 2.47 µM; in the experiment with UACC-257 melanoma, 3.78 µM. Further, the TGI in the experiment with 786-0 renal was 7.55 µM; in the experiment on ACHN renal, 12.1 µM; in the experiment with HOP-62 NSCLC, 7.29 µM; with HT29 colon it was 11 µM; in the experiment with MDA-MB-231 breast, 9.43 µM; in the experiment on NCI-H460 lung it was 10.4 µM. For the same compound, the TGI with RPMI-8226 leukemia was 4.05 µM; in the experiment on SK-MEL-28 melanoma, 14.2 µM; in the experiment with U251 CNS, 11.4 µM; with UACC-257 melanoma, 10.6 µM.

Regarding `O=C(NC1CCNCC1)c1[nH]ncc1NC(=O)c1c(Cl)cccc1Cl`, the GI50 in the experiment with 786-0 renal is 1 µM and 0.543 µM; with ACHN renal, 2.95 µM and 3.03 µM; in the experiment with HOP-62 NSCLC it was 0.451 µM and 0.414 µM; with HT29 colon, 0.398 µM and 0.406 µM; in the experiment on MDA-MB-231 breast it was 0.312 µM and 0.276 µM; with NCI-H460 lung, 0.338 µM and 0.381 µM. Also, the GI50 in the experiment with RPMI-8226 leukemia was 0.329 µM and 0.313 µM; in the experiment on SK-MEL-28 melanoma, 0.43 µM and 0.568 µM; in the experiment on U251 CNS it was 0.328 µM and 0.329 µM; in the experiment with UACC-257 melanoma, 1.42 µM and 1.92 µM. In addition, the TGI is > 100 µM in the experiment with 786-0 renal; > 100 µM in the experiment on ACHN renal; > 100 µM in the experiment with HOP-62 NSCLC; 6.29 µM and > 10 µM in the experiment with HT29 colon; 2.07 µM and > 3.95 µM in the experiment with MDA-MB-231 breast; > 45.6 µM with NCI-H460 lung. In addition, the TGI in the experiment with RPMI-8226 leukemia was 0.999 µM and > 2.62 µM; in the experiment with SK-MEL-28 melanoma, 2.32 µM and 3.96 µM; in the experiment with U251 CNS, > 59.7 µM; in the experiment on UACC-257 melanoma, 4.56 µM and > 7.47 µM.

On to `C=C1C(=O)O[C@H]2[C@H]1CC/C(COC(=O)c1cccc3ccccc13)=C\CC[C@@]1(C)O[C@@H]21`, for which the GI50 with 786-0 renal is 1.69 µM; with ACHN renal it was 1.52 µM; in the experiment on HOP-62 NSCLC, 1.76 µM; in the experiment on HT29 colon it was 0.696 µM; with MDA-MB-231 breast, 1.69 µM; in the experiment on NCI-H460 lung, 2.16 µM. Further, the GI50 with RPMI-8226 leukemia is 1.35 µM; in the experiment on SK-MEL-28 melanoma, 1.82 µM; in the experiment on U251 CNS, 1.39 µM; in the experiment on UACC-257 melanoma, 1.46 µM. Moreover, the TGI in the experiment on 786-0 renal worked out at 3.22 µM; in the experiment with ACHN renal it was 2.86 µM; with HOP-62 NSCLC, 3.68 µM; in the experiment with HT29 colon, 2.42 µM; with MDA-MB-231 breast, 3.68 µM; in the experiment on NCI-H460 lung it was 4.84 µM. The TGI with RPMI-8226 leukemia is 4.54 µM; in the experiment on SK-MEL-28 melanoma, 3.64 µM; with U251 CNS, 2.68 µM; with UACC-257 melanoma it was 2.83 µM.

Turning to `COc1ccc(C2=NNC(c3cc(Cc4ccc(O)c(C5CC(c6ccc(OC)cc6)=NN5)c4)ccc3O)C2)cc1` (stereo not given), the GI50 was 8.39 µM in the experiment on 786-0 renal; 5.56 µM with ACHN renal; 8.64 µM in the experiment on HOP-62 NSCLC; 32.2 µM with HT29 colon; 14.3 µM with MDA-MB-231 breast; 4.88 µM in the experiment with NCI-H460 lung. The GI50 in the experiment with RPMI-8226 leukemia is 9.89 µM; in the experiment on SK-MEL-28 melanoma, 10.2 µM; in the experiment with U251 CNS, 5.84 µM; in the experiment with UACC-257 melanoma it was 25.6 µM. Besides, the TGI with 786-0 renal was 93.4 µM; in the experiment with ACHN renal, > 100 µM; in the experiment with HOP-62 NSCLC, > 100 µM; with HT29 colon, > 100 µM; with MDA-MB-231 breast, 83.1 µM; with NCI-H460 lung, > 100 µM. Also, the TGI in the experiment with RPMI-8226 leukemia was > 100 µM; in the experiment on SK-MEL-28 melanoma it was 34.1 µM; in the experiment with U251 CNS it was > 100 µM; in the experiment on UACC-257 melanoma it was > 100 µM.

Consider `NS(=O)(=O)c1cccc(-c2cc3ccncc3cc2OCc2ccccc2)c1`, for which the GI50 with 786-0 renal was 7.37 µM; in the experiment with ACHN renal it was 8.14 µM; in the experiment on HOP-62 NSCLC, 11.6 µM; in the experiment on HT29 colon, 6.05 µM; in the experiment with MDA-MB-231 breast, 7.37 µM; in the experiment with NCI-H460 lung, 11.7 µM. Besides, the GI50 with RPMI-8226 leukemia is 6.66 µM; in the experiment on SK-MEL-28 melanoma, 5.85 µM; with U251 CNS, 13 µM; with UACC-257 melanoma it was 7.76 µM. The TGI in the experiment with 786-0 renal was > 20.7 µM; with ACHN renal, > 25 µM; in the experiment with HOP-62 NSCLC, > 25 µM; with HT29 colon, 16.8 µM; in the experiment with MDA-MB-231 breast it was > 23.9 µM; in the experiment on NCI-H460 lung it was > 25 µM. The TGI in the experiment on RPMI-8226 leukemia, with SK-MEL-28 melanoma, with U251 CNS and in the experiment on UACC-257 melanoma was > 25 µM throughout.

Turning to `COc1ccc(Oc2nc(Nc3ccc(N4CCOCC4)cc3)ncc2NC(=O)Nc2cc(OC)cc(OC)c2)cc1`, the GI50 in the experiment with 786-0 renal was 1.31 µM; in the experiment on ACHN renal it was 4.23 µM; with HOP-62 NSCLC, 5.48 µM; in the experiment with HT29 colon, 1.42 µM; with MDA-MB-231 breast it was 0.992 µM; in the experiment with NCI-H460 lung, 1.31 µM. Besides, the GI50 was 5.21 µM in the experiment with RPMI-8226 leukemia, 2.5 µM with SK-MEL-28 melanoma, 1.38 µM with U251 CNS and 5.47 µM in the experiment on UACC-257 melanoma. Besides, the TGI in the experiment with 786-0 renal was determined as 5.74 µM; with ACHN renal it was 20.4 µM; with HOP-62 NSCLC it was 22.2 µM; in the experiment on HT29 colon it was 6.69 µM; in the experiment on MDA-MB-231 breast, 3.33 µM; with NCI-H460 lung, 5.72 µM. Besides, the TGI is 32.6 µM with RPMI-8226 leukemia, 9.73 µM with SK-MEL-28 melanoma, 5.88 µM in the experiment on U251 CNS and 23.8 µM in the experiment with UACC-257 melanoma.

Turning to `O=S1CCN(Cc2ccc(-c3ccc4ncnc(Nc5ccc(OCc6ccccc6)c(F)c5)c4c3)o2)CC1`, the GI50 is 6.59 µM in the experiment on 786-0 renal; 0.757 µM in the experiment with ACHN renal; 13.8 µM with HOP-62 NSCLC; 5.21 µM in the experiment on HT29 colon; 7.07 µM in the experiment with MDA-MB-231 breast; 7.91 µM in the experiment on NCI-H460 lung. The GI50 in the experiment on RPMI-8226 leukemia is 8.71 µM; in the experiment with SK-MEL-28 melanoma, 6.8 µM; in the experiment on U251 CNS it was 13.9 µM; in the experiment with UACC-257 melanoma it was 6.66 µM. Further, the TGI was 18.6 µM with 786-0 renal; > 25 µM with ACHN renal; > 25 µM in the experiment on HOP-62 NSCLC; > 25 µM in the experiment on HT29 colon; > 23.7 µM in the experiment on MDA-MB-231 breast; > 25 µM in the experiment on NCI-H460 lung. Moreover, the TGI in the experiment on RPMI-8226 leukemia was > 25 µM; in the experiment on SK-MEL-28 melanoma, > 20.5 µM; with U251 CNS it was > 25 µM; in the experiment with UACC-257 melanoma, > 25 µM.
